Source: patent US10670605B2, “Cysteine reactive probes and uses thereof” (The Scripps Research Institute, priority 2015, dated 2020)

Columns and labels:
Experiment in all cases: Competitive isoTOP-ABPP in situ (fragment-treated cells)
Format in all cases: cell-based
[1] = molecular target: T1, cysteines in MDA-MB-231 and Ramos cells (Homo sapiens, UniProt O14733); settings: 200 μM, insitu
T1 sequence (O14733 1-419): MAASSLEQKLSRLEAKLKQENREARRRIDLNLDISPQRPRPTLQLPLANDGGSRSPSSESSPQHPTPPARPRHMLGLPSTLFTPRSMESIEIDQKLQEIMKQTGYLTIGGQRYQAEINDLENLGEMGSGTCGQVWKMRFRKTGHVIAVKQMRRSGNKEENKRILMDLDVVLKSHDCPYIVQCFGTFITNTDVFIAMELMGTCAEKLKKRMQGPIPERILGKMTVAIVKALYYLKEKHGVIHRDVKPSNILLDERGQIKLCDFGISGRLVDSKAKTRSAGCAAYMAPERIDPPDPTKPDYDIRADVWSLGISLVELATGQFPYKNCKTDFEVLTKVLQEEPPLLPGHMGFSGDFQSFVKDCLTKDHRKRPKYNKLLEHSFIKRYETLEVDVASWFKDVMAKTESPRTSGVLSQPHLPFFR

[2] = molecular target: T2, cysteines in MDA-MB-231 and Ramos cells (Homo sapiens, UniProt Q07065); settings: 200 μM, insitu, 231
T2 sequence (Q07065 1-602): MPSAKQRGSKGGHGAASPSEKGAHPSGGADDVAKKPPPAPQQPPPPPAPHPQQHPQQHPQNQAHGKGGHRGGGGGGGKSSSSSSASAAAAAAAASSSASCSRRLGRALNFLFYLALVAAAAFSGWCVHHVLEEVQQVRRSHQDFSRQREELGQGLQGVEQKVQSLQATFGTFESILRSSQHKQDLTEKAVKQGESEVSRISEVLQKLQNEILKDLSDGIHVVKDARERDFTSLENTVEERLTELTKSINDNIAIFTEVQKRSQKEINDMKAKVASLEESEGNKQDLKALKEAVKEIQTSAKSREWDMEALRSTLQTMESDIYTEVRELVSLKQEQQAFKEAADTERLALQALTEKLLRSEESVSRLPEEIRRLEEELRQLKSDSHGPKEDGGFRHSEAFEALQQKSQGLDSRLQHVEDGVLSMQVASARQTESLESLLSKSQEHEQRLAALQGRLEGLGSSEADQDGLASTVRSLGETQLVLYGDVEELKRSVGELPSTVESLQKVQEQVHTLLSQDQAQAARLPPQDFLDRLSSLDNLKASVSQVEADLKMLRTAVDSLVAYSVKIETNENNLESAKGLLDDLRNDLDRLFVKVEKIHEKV

[3] = molecular target: T3, cysteines in MDA-MB-231 and Ramos cells (Homo sapiens, UniProt Q86YH6); settings: 200 μM, insitu
T3 sequence (Q86YH6 1-399): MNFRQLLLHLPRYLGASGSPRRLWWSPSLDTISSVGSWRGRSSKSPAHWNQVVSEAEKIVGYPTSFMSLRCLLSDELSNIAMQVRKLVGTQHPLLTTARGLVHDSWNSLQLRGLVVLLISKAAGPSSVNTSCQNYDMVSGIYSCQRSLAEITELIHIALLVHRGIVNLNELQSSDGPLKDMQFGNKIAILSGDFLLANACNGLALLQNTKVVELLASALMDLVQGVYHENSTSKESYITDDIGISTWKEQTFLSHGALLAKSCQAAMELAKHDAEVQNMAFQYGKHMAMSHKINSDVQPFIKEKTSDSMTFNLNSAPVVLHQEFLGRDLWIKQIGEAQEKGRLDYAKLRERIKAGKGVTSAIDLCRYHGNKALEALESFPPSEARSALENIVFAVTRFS

[4] = molecular target: cysteines in MDA-MB-231 and Ramos cells (Homo sapiens, UniProt P68366); settings: 200 μM, insitu
Sequence of cysteines in MDA-MB-231 and Ramos cells (Homo sapiens, UniProt P68366) (P68366 whole entry): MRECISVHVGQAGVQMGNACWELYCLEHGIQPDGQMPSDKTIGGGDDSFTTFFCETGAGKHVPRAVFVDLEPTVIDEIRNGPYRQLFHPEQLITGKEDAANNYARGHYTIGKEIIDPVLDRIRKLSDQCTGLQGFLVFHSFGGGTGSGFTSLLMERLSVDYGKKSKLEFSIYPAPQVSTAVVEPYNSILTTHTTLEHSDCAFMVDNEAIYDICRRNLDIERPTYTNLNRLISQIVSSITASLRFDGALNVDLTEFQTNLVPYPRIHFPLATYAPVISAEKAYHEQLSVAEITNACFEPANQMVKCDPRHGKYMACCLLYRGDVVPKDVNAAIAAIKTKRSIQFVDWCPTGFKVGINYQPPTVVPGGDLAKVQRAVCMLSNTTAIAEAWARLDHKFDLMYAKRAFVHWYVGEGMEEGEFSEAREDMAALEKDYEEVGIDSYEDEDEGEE

[5] = molecular target: cysteines in MDA-MB-231 and Ramos cells (Homo sapiens, UniProt P49189); settings: 200 μM, insitu, 231
Sequence of cysteines in MDA-MB-231 and Ramos cells (Homo sapiens, UniProt P49189) (P49189 whole entry): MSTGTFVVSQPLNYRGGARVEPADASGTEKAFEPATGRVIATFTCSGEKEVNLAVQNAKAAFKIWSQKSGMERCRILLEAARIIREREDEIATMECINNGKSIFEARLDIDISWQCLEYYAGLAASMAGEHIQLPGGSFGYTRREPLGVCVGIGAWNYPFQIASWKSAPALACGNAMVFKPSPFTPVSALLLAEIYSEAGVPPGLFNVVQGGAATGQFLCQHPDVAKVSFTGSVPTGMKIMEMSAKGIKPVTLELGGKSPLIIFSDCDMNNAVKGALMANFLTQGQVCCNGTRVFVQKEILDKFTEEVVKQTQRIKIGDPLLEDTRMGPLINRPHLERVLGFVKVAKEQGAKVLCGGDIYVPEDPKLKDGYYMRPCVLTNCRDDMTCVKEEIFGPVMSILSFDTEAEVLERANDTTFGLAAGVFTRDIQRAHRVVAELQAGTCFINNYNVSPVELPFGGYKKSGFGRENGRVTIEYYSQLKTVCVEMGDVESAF

[6] = molecular target: T4, cysteines in MDA-MB-231 and Ramos cells (Homo sapiens, UniProt O00244); settings: 200 μM, insitu
T4 sequence (O00244 1-68): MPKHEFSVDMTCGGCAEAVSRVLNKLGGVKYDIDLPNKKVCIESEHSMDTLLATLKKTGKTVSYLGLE

[7] = molecular target: cysteines in MDA-MB-231 and Ramos cells (Homo sapiens, UniProt Q9Y3D2); settings: 200 μM, insitu, 231
Sequence of cysteines in MDA-MB-231 and Ramos cells (Homo sapiens, UniProt Q9Y3D2) (Q9Y3D2 21-182): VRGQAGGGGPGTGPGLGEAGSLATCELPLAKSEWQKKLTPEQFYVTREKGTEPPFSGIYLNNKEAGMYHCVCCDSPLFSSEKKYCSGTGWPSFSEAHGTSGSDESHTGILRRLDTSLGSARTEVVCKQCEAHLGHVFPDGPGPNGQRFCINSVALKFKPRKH

[8] = molecular target: T5, cysteines in MDA-MB-231 and Ramos cells (Homo sapiens, UniProt Q8WV74); settings: 200 μM, insitu, 231
T5 sequence (Q8WV74 1-236): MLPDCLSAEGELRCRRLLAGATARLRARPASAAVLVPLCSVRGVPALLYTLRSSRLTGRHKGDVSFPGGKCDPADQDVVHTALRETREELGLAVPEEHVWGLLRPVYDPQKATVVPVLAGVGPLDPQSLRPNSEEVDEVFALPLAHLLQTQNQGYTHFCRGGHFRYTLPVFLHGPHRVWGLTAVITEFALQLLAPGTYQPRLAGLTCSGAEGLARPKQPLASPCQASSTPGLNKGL

[9] = molecular target: T6, cysteines in MDA-MB-231 and Ramos cells (Homo sapiens, UniProt Q15013); settings: 200 μM, insitu, 231
T6 sequence (Q15013 1-274): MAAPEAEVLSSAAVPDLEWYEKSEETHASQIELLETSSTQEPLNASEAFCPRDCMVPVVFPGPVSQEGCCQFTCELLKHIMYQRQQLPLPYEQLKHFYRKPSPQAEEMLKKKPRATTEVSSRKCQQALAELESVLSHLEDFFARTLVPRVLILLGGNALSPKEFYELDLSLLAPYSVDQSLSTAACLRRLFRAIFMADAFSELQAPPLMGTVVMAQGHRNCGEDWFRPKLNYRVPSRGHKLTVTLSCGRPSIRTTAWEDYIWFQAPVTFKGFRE

[10] = molecular target: T7, cysteines in MDA-MB-231 and Ramos cells (Homo sapiens, UniProt P53384); settings: 200 μM, insitu, 231
T7 sequence (P53384 1-320): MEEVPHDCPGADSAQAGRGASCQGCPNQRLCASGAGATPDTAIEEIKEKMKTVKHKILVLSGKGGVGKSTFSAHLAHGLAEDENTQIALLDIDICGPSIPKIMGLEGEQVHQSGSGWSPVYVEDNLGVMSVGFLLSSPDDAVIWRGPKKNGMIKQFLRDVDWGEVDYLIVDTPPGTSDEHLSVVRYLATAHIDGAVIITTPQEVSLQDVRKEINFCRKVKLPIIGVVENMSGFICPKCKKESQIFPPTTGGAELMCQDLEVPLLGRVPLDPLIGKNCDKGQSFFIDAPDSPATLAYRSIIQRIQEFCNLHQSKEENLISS

| SMILES | isoTOP-ABPP ratio Q86YH6_C71 [3]; 231 | isoTOP-ABPP ratio P68366_C54 [4]; 231 | isoTOP-ABPP ratio P49189_C288 [5] | isoTOP-ABPP ratio Q9Y3D2_C105 [7] | isoTOP-ABPP ratio Q8WV74_C207 [8] | isoTOP-ABPP ratio Q15013_C124 [9] | isoTOP-ABPP ratio P53384_C235 [10] | other results |
| --- | --- | --- | --- | --- | --- | --- | --- | --- |
| O=C(CCl)NC12CC3CC(CC(C3)C1)C2 [compound 21] | 2.1 | 0.8 | 1.0 | – | – | – | – | isoTOP-ABPP ratio, cysteine O14733_C131 [1]; 231: 0.7; isoTOP-ABPP ratio, cysteine Q07065_C100 [2]: 2.2; isoTOP-ABPP ratio, cysteine O00244_C12 [6]; 231: 0.7 |
| CC(C)CCOCCNC(=O)CCl [compound 27] | 1.3 | 0.3 | – | 1.5 | 2.2 | 1.0 | – | isoTOP-ABPP ratio O00244_C12 [6]; 231: 0.4 |
| COc1ccccc1OCCNC(=O)CCl [compound 28] | – | – | – | – | – | 1.0 | – | – |
| O=C(CCl)N1CCN(CC(=O)N2CCOCC2)CC1 [compound 29] | – | – | – | – | – | – | – | isoTOP-ABPP ratio O14733_C131 ([1]; ramos): 1.0; isoTOP-ABPP ratio Q86YH6_C71 ([3]; ramos): 1.1; isoTOP-ABPP ratio P68366_C54 ([4]; ramos): 1.0; isoTOP-ABPP ratio O00244_C12 ([6]; ramos): 1.4 |
| Cc1ccc(C=C(C#N)C(=O)NCCN2CCOCC2)cc1 [compound 41] | 0.9 | – | 0.8 | 1.2 | 0.9 | – | 0.2 | isoTOP-ABPP ratio O14733_C131 [1]; 231: 0.8; isoTOP-ABPP ratio Q07065_C100 [2]: 1.0 |
| CC1CCc2ccccc2N1C(=O)CCl (centres unmarked) [compound 45] | 20.0 | – | 20.0 | 20.0 | 20.0 | 20.0 | – | isoTOP-ABPP ratio Q07065_C100 [2]: 20.0 |

More lines, main results first:

| isoTOP-ABPP ratio Q86YH6_C71 [3]; 231 | isoTOP-ABPP ratio P68366_C54 [4]; 231 | isoTOP-ABPP ratio P49189_C288 [5] | isoTOP-ABPP ratio Q9Y3D2_C105 [7] | isoTOP-ABPP ratio Q8WV74_C207 [8] | isoTOP-ABPP ratio Q15013_C124 [9] | isoTOP-ABPP ratio P53384_C235 [10] | SMILES | other results |
| --- | --- | --- | --- | --- | --- | --- | --- | --- |
| – | – | – | – | – | – | 0.7 | C=CC(=O)N(Cc1cccnc1)c1cc(C(F)(F)F)cc(C(F)(F)F)c1 [compound 31] | isoTOP-ABPP ratio P68366_C54 ([4]; ramos): 1.1 |
| – | 2.0 | 0.7 | 1.6 | – | – | 2.0 | C=CC(=O)Nc1cc(F)c(N2CCN(C(=O)OC(C)(C)C)CC2)c(F)c1 [compound 38] | isoTOP-ABPP ratio O14733_C131 [1]; 231: 20.0 |
| – | – | – | – | – | 1.2 | – | O=C(CCl)Nc1cccc2ncccc12 [compound 51] | – |
